Test results: the supplement of paper PMC13380429

Assays:
Conditions in all cases: 72 h
[1] = test system: HepG2; test: relative viability EC50 (midpoint between 100% and the lowest measured viability); higher = less toxic
[2] = test system: Caco-2; test: as above
[3] = test system: Calu-3; test: as above
[4] = test system: Vero E6; test: as above
[5] = test system: U2OS; test: as above
[6] = test system: HepG2; test: drug sensitivity score (DSS) for viability; higher = more toxic; extreme values may be limits of the assay
[7] = test system: Caco-2; test: as above
[8] = test system: Calu-3; test: as above
[9] = test system: Vero E6; test: as above
[10] = test system: U2OS; test: as above
[11] = test system: HepG2; test: cell viability relative to DMSO; higher = less toxic
[12] = test system: Caco-2; test: as above
[13] = test system: Calu-3; test: as above
[14] = test system: Vero E6; test: as above
[15] = test system: U2OS; test: as above

SMILES | relative viability EC50 [1] | relative viability EC50 [2] | relative viability EC50 [3] | relative viability EC50 [4] | relative viability EC50 [5] | drug sensitivity score [6] | drug sensitivity score [7] | drug sensitivity score [8] | drug sensitivity score [9] | drug sensitivity score [10] | cell viability ([11]; 1 nM) | cell viability ([11]; 10 nM) | cell viability ([11]; 100 nM) | cell viability ([11]; 1000 nM) | cell viability ([11]; 10000 nM) | cell viability ([12]; 1 nM) | cell viability ([12]; 10 nM) | cell viability ([12]; 100 nM) | cell viability ([12]; 1000 nM) | cell viability ([12]; 10000 nM) | cell viability ([13]; 1 nM) | cell viability ([13]; 10 nM) | cell viability ([13]; 100 nM) | cell viability ([13]; 1000 nM) | cell viability ([13]; 10000 nM) | cell viability ([14]; 1 nM) | cell viability ([14]; 10 nM) | cell viability ([14]; 100 nM) | cell viability ([14]; 1000 nM) | cell viability ([14]; 10000 nM) | cell viability ([15]; 1 nM) | cell viability ([15]; 10 nM) | cell viability ([15]; 100 nM) | cell viability ([15]; 1000 nM) | cell viability ([15]; 10000 nM)
CN1CCc2c(c3ccccc3n2Cc2ccccc2)C1 [mebhydrolin] | > 10 µM | > 10 µM | > 10 µM | > 10 µM | > 10 µM | 3.1 | 0 | 0 | 0 | 0 | 94.3% | 102% | 106% | 77% | 94.2% | 90.3% | 92.8% | 90.4% | 101% | 100% | 106% | 95.8% | 106% | 104% | 104% | 106% | 99.4% | 99.9% | 94.1% | 89.6% | 96.5% | 102% | 98.5% | 98.2% | 95.3%
Cc1cccc(C)c1NC(=O)C1CCCCN1C (stereo not given) [mepivacaine] | > 10 µM | > 10 µM | > 10 µM | > 10 µM | > 10 µM | 0 | 0 | 0 | 0 | 0 | 96.8% | 107% | 105% | 115% | 104% | 92.1% | 81.4% | 102% | 90.6% | 108% | 89.7% | 97.8% | 93.9% | 99.6% | 103% | 96.3% | 91.4% | 99.2% | 103% | 107% | 98% | 95.8% | 99.4% | 97.4% | 104%
COc1ccc(O)cc1 [mequinol] | > 10 µM | > 10 µM | > 10 µM | > 10 µM | > 10 µM | 1.7 | 0 | 0 | 0 | 0 | 103% | 90% | 85.6% | 92.9% | 79.7% | 97.8% | 98.5% | 105% | 104% | 97.9% | 104% | 100% | 105% | 94.9% | 92.8% | 96.8% | 94.1% | 105% | 103% | 95.3% | 100% | 109% | 96.8% | 98.7% | 101%
O=C(O)CC(S)C(=O)O (stereo not given) [mercaptosuccinic-acid] | > 10 µM | > 10 µM | > 10 µM | > 10 µM | > 10 µM | 0 | 0 | 0 | 0 | 0 | 93.1% | 93.7% | 94.9% | 96.3% | 92.7% | 94% | 106% | 91.2% | 95.7% | 99.7% | 102% | 101% | 93.5% | 94.7% | 97.7% | 96.1% | 99.8% | 96.8% | 97.4% | 99.3% | 103% | 104% | 94.3% | 102% | 96.2%
CC[N+](C)(CC)CCOC(=O)C1c2ccccc2Oc2ccccc21 [methantheline] | > 10 µM | > 10 µM | > 10 µM | > 10 µM | > 10 µM | 0 | 0 | 0 | 0 | 0 | 102% | 88.7% | 97.9% | 79.8% | 97.5% | 91.6% | 108% | 89.1% | 99% | 96.3% | 99.9% | 96.2% | 103% | 106% | 88.9% | 95.3% | 97% | 94.4% | 93.2% | 93.8% | 99.1% | 100% | 100% | 104% | 97.8%
O=C(O)[C@H](CC(=O)N1C[C@H]2CCCC[C@H]2C1)Cc1ccccc1 [mitiglinide] | > 10 µM | > 10 µM | > 10 µM | > 10 µM | > 10 µM | 0 | 0 | 0 | 0 | 0 | 98.2% | 84.2% | 91.5% | 94.6% | 104% | 99.9% | 96.4% | 95% | 101% | 94.9% | 86.3% | 93% | 88.2% | 92.8% | 104% | 98.4% | 104% | 101% | 98.5% | 103% | 92.2% | 104% | 95.3% | 116% | 96.4%
O=c1c(-n2ccnn2)c[nH]n1-c1cc(N2CCOCC2)ncn1 [molidustat] | > 10 µM | > 10 µM | > 10 µM | > 10 µM | > 10 µM | 0 | 0 | 0 | 0 | 0 | 104% | 95.4% | 94.8% | 93.2% | 95.3% | 100% | 107% | 100% | 97.2% | 96% | 78.6% | 97.9% | 87.8% | 104% | 88% | 108% | 99.4% | 104% | 95.8% | 90.9% | 98.1% | 97.7% | 94.7% | 103% | 91.4%
CCOC(=O)C1=C(C)NC(=S)NC1c1cccc(O)c1 (stereo not given) [monastrol] | > 10 µM | > 10 µM | > 10 µM | > 10 µM | > 10 µM | 0 | 0 | 0 | 0 | 0 | 99.3% | 107% | 96.2% | 99.4% | 101% | 103% | 94.6% | 94.1% | 96% | 96.8% | 89.7% | 95.1% | 95.6% | 100% | 103% | 104% | 108% | 102% | 97.6% | 97.9% | 103% | 99% | 103% | 98.7% | 104%
CCCCN1CCCC1CNC(=O)c1cc(C#N)c2ccccc2c1OC (stereo not given) [nafadotride] | > 10 µM | > 10 µM | > 10 µM | > 10 µM | > 10 µM | 0 | 0 | 0 | 0 | 0 | 104% | 103% | 105% | 97.5% | 96.7% | 98.8% | 97.6% | 97.4% | 104% | 102% | 102% | 106% | 87.2% | 105% | 97.1% | 102% | 96.8% | 105% | 100% | 92.5% | 98.3% | 101% | 104% | 101% | 92.2%
Cc1cccc(C)c1NC(=O)CN1CCCC1=O [nefiracetam] | > 10 µM | > 10 µM | > 10 µM | > 10 µM | > 10 µM | 0 | 0 | 0 | 0 | 0 | 102% | 104% | 96.9% | 102% | 100% | 98.3% | 91.2% | 105% | 101% | 91.2% | 104% | 104% | 97.2% | 108% | 98.7% | 94.5% | 106% | 92.6% | 102% | 111% | 96.5% | 93.3% | 102% | 97.2% | 102%
COc1nc(N)nc2c1ncn2[C@@H]1O[C@H](CO)[C@@H](O)[C@@H]1O [nelarabine] | > 10 µM | > 10 µM | > 10 µM | > 10 µM | > 10 µM | 0 | 0 | 0 | 0 | 0 | 105% | 104% | 105% | 95.9% | 109% | 97.3% | 98% | 101% | 98.6% | 104% | 115% | 101% | 94.8% | 92.3% | 107% | 97.4% | 97.3% | 99.5% | 97.6% | 98.5% | 103% | 97.5% | 98.5% | 95.6% | 102%
COc1ccc([C@@H]2CC(=O)c3c(O)cc(O[C@@H]4O[C@H](CO)[C@@H](O)[C@H](O)[C@H]4O[C@@H]4O[C@@H](C)[C@H](O)[C@@H](O)[C@H]4O)cc3O2)cc1O [neohesperidin] | > 10 µM | > 10 µM | > 10 µM | > 10 µM | > 10 µM | 0 | 0 | 0 | 0 | 0 | 102% | 97.8% | 103% | 99.3% | 101% | 94.5% | 99.5% | 99.4% | 90.1% | 99.3% | 102% | 91.1% | 95.7% | 101% | 102% | 98.2% | 92.8% | 93.6% | 95.9% | 104% | 96.7% | 98.8% | 97.2% | 96% | 108%
